Results as given in the supplement of paper PMC10627819.

Assays:
Test in all cases: fitness (endpoint OD595 vs no drug) (fraction); higher = more growth
B. subtilis 168 = tested on: B. subtilis 168
Outline: (§1)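 Plates with 384 wells were inoculated at OD595 0.01 using 30 µl of TSB, LB Lennox or CY, or 55 µl for S. pneumoniae. Incubation was at 37 °C, with OD595 measured every 30 min for 14 h. Fitness is the stationary-phase transition optical density over the robust mean of no-drug control wells, after first-reading background subtraction; it is capped at 1.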

S. aureus Newman = tested on: S. aureus Newman
Outline: as §1

S. pneumoniae D39V = tested on: S. pneumoniae D39V
Outline: as §1

S. aureus DSM 20231 = tested on: S. aureus DSM 20231
Outline: as §1

COc1cccc2c1C(=O)c1c(O)c3c(c(O)c1C2=O)C[C@@](O)(C(=O)CO)C[C@@H]3O[C@H]1C[C@H](N)[C@H](O)[C@H](C)O1 [Doxorubicin] + CC1=C(C(=O)O)N2C(=O)[C@@H](NC(=O)[C@H](N)c3ccccc3)[C@H]2SC1 [Cephalexin]
fitness
Conditions | first compound 0.25 µg/mL | first compound 0.5 µg/mL | first compound 0.625 µg/mL | first compound 1 µg/mL | first compound 1.25 µg/mL | first compound 2.5 µg/mL
B. subtilis 168, partner 0.125 µg/mL | – | – | 0.917 | – | 0.897 | 0.733
B. subtilis 168, partner 0.25 µg/mL | – | – | 0.964 | – | 0.89 | 0.68
B. subtilis 168, partner 0.5 µg/mL | – | – | 0.969 | – | 0.941 | 0.655
S. aureus Newman, partner 0.25 µg/mL | – | – | 0.771 | – | 0.824 | 0.744
S. aureus Newman, partner 0.5 µg/mL | – | – | 0.844 | – | 0.834 | 0.758
S. aureus Newman, partner 1 µg/mL | – | – | 0.823 | – | 0.861 | 0.83
S. pneumoniae D39V, partner 2 µg/mL | 0.0496 | 0.0845 | – | 0.105 | – | –
S. pneumoniae D39V, partner 4 µg/mL | 0.0361 | 0.0467 | – | 0.0242 | – | –

fitness, one replicate
Conditions | first compound 0.25 µg/mL | first compound 0.5 µg/mL | first compound 0.625 µg/mL | first compound 1 µg/mL | first compound 1.25 µg/mL | first compound 2.5 µg/mL
B. subtilis 168, partner 1 µg/mL | – | – | ≥ 1 | – | 0.98 | 0.703
S. pneumoniae D39V, partner 0.125 µg/mL | 0.866 | 0.98 | – | 0.905 | – | –
S. pneumoniae D39V, partner 0.25 µg/mL | 0.862 | 0.876 | – | 0.861 | – | –
S. pneumoniae D39V, partner 0.5 µg/mL | 0.878 | 0.872 | – | 0.898 | – | –

CC(=O)Oc1ccccc1C(=O)O [Acetylsalicylic acid] + CC1=C\[C@@H](O)CC(=O)Cc2nc(co2)C(=O)N2CCC=C2C(=O)O[C@H](C(C)C)[C@H](C)/C=C/C(=O)NC\C=C\1 [Virginiamycin M1]
fitness
Conditions | first compound 250 µg/mL | first compound 500 µg/mL | first compound 1000 µg/mL
S. aureus DSM 20231, partner 0.0625 µg/mL | 0.86 | 0.764 | 0.564
S. aureus DSM 20231, partner 0.125 µg/mL | 0.922 | – | –
S. aureus DSM 20231, partner 0.25 µg/mL | 0.877 | 0.715 | 0.503
S. pneumoniae D39V, partner 0.5 µg/mL | 0.967 | 0.964 | 0.872
S. pneumoniae D39V, partner 1 µg/mL | 0.914 | 0.961 | –
S. pneumoniae D39V, partner 2 µg/mL | 0.933 | 0.903 | –

fitness, one replicate
Conditions | first compound 250 µg/mL | first compound 500 µg/mL | first compound 1000 µg/mL
S. aureus DSM 20231, partner 0.5 µg/mL | 0.776 | 0.789 | 0.371
S. aureus DSM 20231, partner 1 µg/mL | 0.818 | 0.781 | 0.389
S. pneumoniae D39V, partner 0.15 µg/mL | 0.954 | 0.988 | 0.949
S. pneumoniae D39V, partner 0.3 µg/mL | 0.951 | 0.938 | 0.918

CC(=O)Oc1ccccc1C(=O)O [Acetylsalicylic acid] + CCN(CC)CCOC(=O)c1ccc(N)cc1 [Procaine]
fitness
Conditions | partner 85.5 µg/mL | partner 171 µg/mL | partner 342 µg/mL
S. aureus DSM 20231, first compound 250 µg/mL | 0.916 | 0.971 | 0.963
S. aureus DSM 20231, first compound 500 µg/mL | 0.849 | 0.896 | –
S. pneumoniae D39V, first compound 250 µg/mL | ≥ 1 | 0.989 | 0.966
S. pneumoniae D39V, first compound 500 µg/mL | ≥ 1 | 0.995 | 0.97
S. pneumoniae D39V, first compound 1000 µg/mL | 0.922 | 0.86 | 0.89

CN(C)[C@@H]1C(O)=C(C(N)=O)C(=O)[C@@]2(O)C(O)=C3C(=O)c4c(O)ccc(Cl)c4[C@@](C)(O)[C@H]3C[C@@H]12 [Chlortetracycline] + CCCCCCCCCC(=O)N[C@@H]1[C@H]([C@@H]([C@H](O[C@H]1OC2=C3C=C4C=C2OC5=C(C=C(C=C5)[C@H]([C@H]6C(=O)N[C@@H](C7=C(C(=CC(=C7)O)OC8[C@H]([C@H]([C@@H]([C@H](O8)CO)O)O)O)C9=C(C=CC(=C9)[C@H](C(=O)N6)NC(=O)[C@@H]4NC(=O)[C@@H]1C2=CC(=CC(=C2)OC2=C(C=CC(=C2)[C@H](C(=O)N[C@H](CC2=CC(=C(O3)C=C2)Cl)C(=O)N1)N)O)O)O)C(=O)O)O[C@H]1[C@@H]([C@H]([C@@H]([C@H](O1)CO)O)O)NC(=O)C)Cl)CO)O)O [Teicoplanin]
S. aureus DSM 20231, first compound 0.006 µg/mL, one replicate, main component drawn
Conditions | fitness
partner 0.1562 µg/mL | 0.707
partner 0.3125 µg/mL | 0.905
partner 0.625 µg/mL | 0.997

fitness, S. aureus DSM 20231, main component drawn
Conditions | partner 0.1562 µg/mL | partner 0.3125 µg/mL | partner 0.625 µg/mL
first compound 0.012 µg/mL | 0.656 | – | 0.756
first compound 0.048 µg/mL | 0.0926 | 0.0866 | 0.0794

CC(=O)Oc1ccccc1C(=O)O [Acetylsalicylic acid] + Cn1nnc(-c2ccc(-c3ccc(N4C[C@H](CO)OC4=O)cc3F)cn2)n1 [Tedizolid]
fitness
Conditions | partner 0.03125 µg/mL | partner 0.0625 µg/mL | partner 0.125 µg/mL | partner 0.25 µg/mL | partner 0.5 µg/mL
S. aureus DSM 20231, first compound 250 µg/mL | – | 0.839 | 0.778 | 0.403 | –
S. aureus DSM 20231, first compound 500 µg/mL | – | – | – | 0.327 | –
S. aureus DSM 20231, first compound 1000 µg/mL | – | – | – | 0.128 | –
S. pneumoniae D39V, first compound 250 µg/mL | 0.968 | 0.989 | 0.864 | 0.534 | 0.208
S. pneumoniae D39V, first compound 500 µg/mL | 0.989 | 0.986 | 0.789 | 0.472 | 0.175
S. pneumoniae D39V, first compound 1000 µg/mL | 0.966 | 0.962 | 0.728 | 0.385 | 0.16

CC(=O)Oc1ccccc1C(=O)O [Acetylsalicylic acid] + CCC[C@@H]1C[C@@H](C(=O)N[C@@H]([C@H]2O[C@H](SC)[C@H](O)[C@@H](O)[C@H]2O)[C@H](C)Cl)N(C)C1 [Clindamycin]
fitness
Conditions | first compound 250 µg/mL | first compound 500 µg/mL | first compound 1000 µg/mL
S. aureus DSM 20231, partner 0.0312 µg/mL | – | – | 0.28
S. aureus DSM 20231, partner 0.0625 µg/mL | 0.143 | 0.169 | 0.114
S. aureus DSM 20231, partner 0.125 µg/mL | 0.0488 | 0.0833 | 0.0683
S. pneumoniae D39V, partner 0.0125 µg/mL | 0.759 | 0.697 | 0.508
S. pneumoniae D39V, partner 0.015 µg/mL | 0.857 | 0.771 | 0.528
S. pneumoniae D39V, partner 0.025 µg/mL | 0.468 | 0.435 | 0.37
S. pneumoniae D39V, partner 0.03 µg/mL | 0.677 | 0.574 | 0.37
S. pneumoniae D39V, partner 0.05 µg/mL | 0.164 | 0.166 | 0.129
S. pneumoniae D39V, partner 0.06 µg/mL | 0.331 | 0.246 | 0.104
